We go through two compounds from paper PMC4877642 (2016).

For test [1], the system named is X-Aptamer 2 (DNA, aptamer, dU with phenol (tyrosine) at C5 (Y) at 18; dU with indole (tryptophan) at C5 (W) at 38) TTTTTTTCTAGCTTCGTTTGTCTCAACGTGCCCTGCGTCGTGATCTTTTT
Kind of test: SPR imaging, kinetic 1:1 fit. Particulars: 10 mM PBS; pH 7.4, 4% acetonitrile, room temperature; 150 µM progesterone injected in screening.

Test [2] has as its system X-Aptamer 8 (DNA, aptamer, dU with phenol (tyrosine) at C5 (Y) at 23; dU with indole (tryptophan) at C5 (W) at 37, 39 and 41) TTTTTTTCTAGCTTCCGTGAAATCAACGTGCCCTGGTATCTGATCTTTTT
Kind of test: SPR imaging, kinetic 1:1 fit. Particulars: 10 mM PBS; pH 7.4, 4% acetonitrile, room temperature; 150 µM progesterone injected in screening.

Test [3] relates to X-Aptamer 9 (DNA, aptamer, dU with phenol (tyrosine) at C5 (Y) at 23; dU with indole (tryptophan) at C5 (W) at 36, 37 and 39) TTTTTTTCTAGCTTCCGTGAAATCAACGTGCCCTGTTATCGCTAGTTTTT
In words: SPR imaging, kinetic 1:1 fit. The note with it: 10 mM PBS; pH 7.4, 4% acetonitrile, room temperature; 150 µM progesterone injected in screening.

In test [4] the test system is X-Aptamer 7 (DNA, aptamer, dU with phenol (tyrosine) at C5 (Y) at 23; dU with indole (tryptophan) at C5 (W) at 36 and 37) TTTTTTTCTAGCTTCCGTGAAATCAACGTGACCTGTTTAGTGATCTTTTT
In words: SPR imaging, kinetic 1:1 fit. The note with it: 10 mM PBS; pH 7.4, 4% acetonitrile, room temperature; 150 µM progesterone injected in screening.

The test system of test [5] is X-Aptamer 6 (DNA, aptamer, dU with phenol (tyrosine) at C5 (Y) at 23; dU with indole (tryptophan) at C5 (W) at 37) TTTTTTTCTAGCTTCCGTGAAATCAACGTGCCCTGGTTAGTCTAGTTTTT
In words: SPR imaging, kinetic 1:1 fit. The note with it: 10 mM PBS; pH 7.4, 4% acetonitrile, room temperature; 150 µM progesterone injected in screening.

Test [6] concerns X-Aptamer 5 (DNA, aptamer, dU with phenol (tyrosine) at C5 (Y) at 23; dU with indole (tryptophan) at C5 (W) at 37 and 38) TTTTTTTCTAGCTTCCGTGAAATCAACGTGCCCTGGTTCGTCTAGTTTTT
In words: SPR imaging, kinetic 1:1 fit. Particulars: 10 mM PBS; pH 7.4, 4% acetonitrile, room temperature; 150 µM progesterone injected in screening.

Test [7] deals with X-Aptamer 3 (DNA, aptamer, dU with phenol (tyrosine) at C5 (Y) at 18; dU with indole (tryptophan) at C5 (W) at 38) TTTTTTTCTAGAGATGTTTGTCTCAACGTGCCCTGCGTCGTGATCTTTTT
In words: SPR imaging, kinetic 1:1 fit. The note with it: 10 mM PBS; pH 7.4, 4% acetonitrile, room temperature; 150 µM progesterone injected in screening.

Test [8] relates to X-Aptamer 5 (DNA, aptamer, dU with phenol (tyrosine) at C5 (Y) at 23; dU with indole (tryptophan) at C5 (W) at 37 and 38) TTTTTTTCTAGCTTCCGTGAAATCAACGTGCCCTGGTTCGTCTAGTTTTT
In words: SPR imaging. Particulars: 10 mM PBS; pH 7.4, 4% acetonitrile, room temperature; tested at 63 µg/mL.

As a reminder, the KD is the equilibrium constant for the complex coming apart. Read a low KD as a tighter complex. As for `CC(=O)[C@H]1CC[C@H]2[C@@H]3CCC4=CC(=O)CC[C@]4(C)[C@H]3CC[C@]12C`, the KD was 49.51 ± 0.099 pM in test [1]; 40.79 ± 0.076 pM in test [2]; 61.86 ± 0.076 pM in test [3]; 140.37 ± 0.064 pM in test [4]; 53.03 ± 0.061 pM in test [5]; 25.58 pM in test [6]. In addition, in test [7], the equilibrium dissociation constant (KD) was 21.74 ± 0.087 pM.
Regarding `C[C@]12CC[C@@H]3c4ccc(O)cc4CC[C@H]3[C@@H]1CC[C@@H]2O`, in test [8], the binding result is on record as “no”.
